Several values for one entry are separate records, joined by “and”; a condition that tells them apart may be missing. Equal entries are not always repeated.
How the values were obtained:
[1] = molecular target: T1, mTRPC5 (Mus musculus, UniProt Q9QX29); experiment: Whole-cell patch clamp, AlF4- evoked TRPC5 currents; type: cell-based
T1 construct: expressed in transfected cells
T1 sequence (Q9QX29 1-975): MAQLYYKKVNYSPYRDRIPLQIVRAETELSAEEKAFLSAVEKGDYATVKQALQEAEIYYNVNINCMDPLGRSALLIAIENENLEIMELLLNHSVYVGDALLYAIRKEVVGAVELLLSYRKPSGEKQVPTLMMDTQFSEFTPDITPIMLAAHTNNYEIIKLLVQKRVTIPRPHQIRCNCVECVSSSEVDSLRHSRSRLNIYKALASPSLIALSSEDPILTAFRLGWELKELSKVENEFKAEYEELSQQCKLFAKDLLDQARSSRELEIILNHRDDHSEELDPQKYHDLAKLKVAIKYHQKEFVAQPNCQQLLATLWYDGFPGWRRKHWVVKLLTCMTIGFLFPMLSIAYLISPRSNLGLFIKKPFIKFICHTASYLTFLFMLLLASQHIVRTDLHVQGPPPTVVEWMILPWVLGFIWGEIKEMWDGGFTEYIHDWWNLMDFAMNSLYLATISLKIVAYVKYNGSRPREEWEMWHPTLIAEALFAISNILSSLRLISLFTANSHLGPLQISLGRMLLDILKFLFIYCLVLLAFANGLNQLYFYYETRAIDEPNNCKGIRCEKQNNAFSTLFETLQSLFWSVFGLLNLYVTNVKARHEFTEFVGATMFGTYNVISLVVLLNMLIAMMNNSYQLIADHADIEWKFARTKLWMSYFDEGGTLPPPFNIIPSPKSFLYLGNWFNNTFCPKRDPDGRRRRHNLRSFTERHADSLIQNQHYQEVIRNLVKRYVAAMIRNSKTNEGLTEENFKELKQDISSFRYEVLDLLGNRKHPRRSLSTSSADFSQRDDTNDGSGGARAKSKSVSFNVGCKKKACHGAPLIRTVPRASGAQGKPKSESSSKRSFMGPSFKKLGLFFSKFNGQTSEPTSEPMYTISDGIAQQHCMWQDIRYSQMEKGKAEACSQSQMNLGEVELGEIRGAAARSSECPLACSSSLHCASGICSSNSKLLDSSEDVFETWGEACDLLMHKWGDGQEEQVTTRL
Experimental: Cells were grown at 37°C in a humidified atmosphere (5% or 7% CO2) under standard cell culture conditions. Stable human embryonic kidney (HEK) cell lines expressing recombinant mTRPC4ß (GenBank accession number AAC05178); mTRPC5 (GenBank accession number NM_009428) or hTRPC6 (GenBank accession number AF080394) under the control of a tetracycline-inducible promoter were generated using the Flp-In T-Rex (FITR) system (Invitrogen, Karlsruhe, Germany). […]
Cells grown on poly-L-lysine-coated coverslips were continuously superfused with extracellular solution and substances were applied using an ALA BPS-8 perfusion system (ALA Scientific Instruments, Westbury, USA). […] Cells were held at −70 mV, and current-voltage (I–V) relationships were routinely measured every 2 or 3 s by applying voltage ramps (180 ms) from −100 mV to +80 mV. […]
For statistical analysis, analysis of variance was performed with Origin 6.0 software (Microcal Software Inc., Northampton, USA). […] IC50 were calculated with SigmaPlot (Systat software, San Jose, USA) using the sigmoidal Hill-model: f = 100 (C^n/(IC50 ^n+C^n)); where f is the inhibition, C is the applied drug concentration and n is the Hill coefficient. […] Averaged data is expressed as means ± SEM.

[2] = test system: rat aortic rings; experiment: Isometric force measurement, relaxation of phenylephrine pre-contracted rat aortic rings; settings: L-NAME treated, n = 6, read-out: EC50, vasorelaxation of pre-contracted aortic rings
Experimental: Adult male Wistar-Unilever rats (8–11 weeks old; Harlan Winkelmann, Borchen, Germany) were sacrificed by decapitation. Thoracic aortas were excised quickly, transferred to cold (4°C), carbogen (95% O2 and 5% CO2) bubbled physiological salt solution (119 mM NaCl, 4.7 mM KCl, 1.2 KH2PO4, 1.2 mM MgSO4, 1.6 mM CaCl2, 25 mM NaHCO3, 11 mM glucose) and rinsed. After removal of connective tissue and perivascular fat aortas were dissected in 5 mm rings, connected to force transducers and equilibrated in carbogen bubbled physiological salt solution at 37°C for 15 min. Aortic rings were set at 1000 mg passive tension and contractile forces were then measured isometrically using standard bath procedures as described earlier. […]
For statistical analysis, analysis of variance was performed with Origin 6.0 software (Microcal Software Inc., Northampton, USA). […] IC50 were calculated with SigmaPlot (Systat software, San Jose, USA) using the sigmoidal Hill-model: f = 100 (C^n/(IC50 ^n+C^n)); where f is the inhibition, C is the applied drug concentration and n is the Hill coefficient. The half maximal effective concentration (EC50) of norgestimate-induced vasorelaxation was calculated analogously with R = y0+y1C^n/(EC50 ^n+C^n); where R is relaxation, yo and y1 are constants, C is the applied drug concentration and n is the Hill coefficient. Averaged data is expressed as means ± SEM.

Q: What does the source list for C#C[C@]1(OC(C)=O)CC[C@H]2[C@@H]3CCC4=CC(=NO)CC[C@@H]4[C@H]3CC[C@@]21CC (mixture of isomers) [norgestimate]?
A: Hill slope, TRPC5 current inhibition ([1]; fit to dose-response equation): 1.43; IC50 ([1]; whole-cell patch clamp, AlF4- infusion, TRPC5 HEK-FITR cells, read-out: IC50, TRPC5 current inhibition): > 10 µM and 13.6 µM and ~14 µM; EC50 [2]: 8.19 µM

— article PMC3328449, “Inhibition of Diacylglycerol–Sensitive TRPC Channels by Synthetic and Natural Steroids” (PLoS ONE, 2012)
